In patent publication US20080044474A1, “Dispersions of nanoureas comprising biologically active compounds” (Bayer MaterialScience AG, priority 2006, published 2008):

Key:
Format in all cases: cell-based
[1] = test system: Staphylococcus epidermidis (ATC 14990); assay: Agar plate inhibition halo test according to Example 5, overnight culture
Description: Cells of Staphylococcus epidermidis 498 and Bacillus subtilis 168 are plated out on agar plates such that, after incubation overnight at 37° C., they have formed a visible cell lawn on the agar. […] A hole was in each case punched in the centre of the plates. […] After incubation overnight, the agar was examined for diffusing antibiotic active compounds in that the missing cell lawn around the punched-out hole can be seen (“inhibition halos”). These inhibition halos were compared with an agar plate without further additives and an agar plate with an active compound-free nanourea dispersion. A test according to Example 5 was carried out in an overnight culture of Staphylococcus epidermidis (ATC 14990). The underlying active compound-loaded dispersions F to K were in turn prepared analogously to Example 2. As comparisons L to O, aqueous solutions having various concentrations of ciprofloxacin (Cipro) were additionally tested.

Bacillus subtilis 168 = assay: Agar plate inhibition halo test of active compound-loaded nanourea dispersions; details: 100 μl dialysed active compound-loaded nanourea dispersion of Example 2 (about 3% active compound on solids), incubation overnight, Müller-Hinton agar
Description: (§1) Cells of Staphylococcus epidermidis 498 and Bacillus subtilis 168 are plated out on agar plates such that, after incubation overnight at 37° C., they have formed a visible cell lawn on the agar. The agar contained a complex nutrient-rich medium (Müller-Hinton medium, OD600=0.1 set; 200 μl plated out per plate, dried at room temperature for one hour). A hole was in each case punched in the centre of the plates.

[2] = test system: Staphylococcus epidermidis 498; assay: as above; details: 100 μl dialysed active compound-loaded nanourea dispersion of Example 2 (about 3% active compound on solids), incubation overnight, Müller-Hinton agar
Description: as §1

[3] = active compound-loaded nanourea dispersion prepared analogously to Example 2

Q: For `CC(=O)Oc1ccccc1C(=O)O` [Acetylsalicylic acid], which Inhibition halo [1, 3] is on record?
A: 13 mm

Q: `O=C(O)c1cn(C2CC2)c2cc(N3CCNCC3)c(F)cc2c1=O` [Cipro, Ciprofloxacin] was tested. Which Inhibition halo ([1]; aqueous solution, 0.001 mM (comparison O)) did it give?
A: 11 mm

Q: What about the Inhibition halo ([1]; aqueous solution, 0.01 mM (comparison N)) of the same compound?
A: 26 mm

Q: What about the Inhibition halo ([1]; aqueous solution, 0.1 mM (comparison M)) of the same compound?
A: 36 mm

Q: And the Inhibition halo ([1]; aqueous solution, 1 mM (comparison L))?
A: 43 mm

Q: Which Inhibition halo [1, 3] does the source give for `C=O` [Formaldehyde] here?
A: 21 mm

Q: For `COCN(COC)c1nc(N(COC)COC)nc(N(COC)COC)n1` [Hexamethoxymethylmelamine], which Inhibition halo [1, 3] is on record?
A: 13 mm

Q: How did the Inhibition halo [1, 3] turn out when `O=C(O)c1ccccc1O` [Salicylic acid] was run?
A: 38 mm

Q: Which “Inhibition halo (diameter minus the diameter of the punched-out hole)” value (Bacillus subtilis 168) does the source give for `O=[N+]([O-])[O-].[Ag+]` [Silver nitrate] here?
A: 300 μm

Q: What about the “Inhibition halo (diameter minus the diameter of the punched-out hole)” value [2] of the same compound?
A: 400 μm

Q: Which Inhibition halo [1, 3] does the source give for Potassium iodide-iodine complex here?
A: 14 mm
